Earlier results on one substance are cited in patent US20040053391A1, “Renal cell carcinoma-antigen G250-derived peptides that elicit both CD4+ and CD8+ T-cell responses” (Katholieke Universiteit Nijmegen, priority 2002, published 2004).

The series concerns CD8+CTL's. To be noted: HLA-A2.1; Vissers et al. 1999, WO 01/98363.

With “G250 amino acid sequence from 254 to 262: previously identified HLA-A2.1-restricted CTL epitope of G250, comprised within 249-268 (HLSTAFARV; UniProt Q16790 254-262, looked up, fragment)”, the CTL epitope character result was “HLA-A2.1-restricted CTL epitope that is both naturally processed and immunogenic”.
